The subject of data set [1] is break light A. The experiment in a line: Molecular break light assay: cleavage of break light A by enediynes and Fe^+2-dependent agents. It counts as biochemical. Particulars: for agent concentration at maximum turnover: [A] = 32 nM; for Vmax: 37° C.; for effect of ascorbate on DNA-cleavage: addition of ascorbate; for agent concentration at maximum turnover (Vapp/[cleavage agent]): [molecular break light A] = 3.2 nM. The procedure: Samples were analyzed with a FluoroMax-2 spectrofluorometer equipped with DataMax for Windows (Instruments S. A., Inc.; Edison, N.J.) and the temperature controlled (30° C., unless otherwise noted) by a Haake Circulator DC10. All samples were filtered prior to analysis and analyzed via a timebase scan (λex=485 nm, λEm=517 nm) in a Suprasil quartz cuvette (10 mm path) fitted with a magnetic stirring bar in a total volume of 2 mL. […] Total cleavage of the labeled oligonucleotide, confirmed by polyacrylamide gel electrophoresis (PAGE), was defined as the maximum fluorescence emission possible under saturated cleaving conditions. Emission units were converted to the amount of labeled oligonucleotide used within a procedure, thereby equating labeled oligonucleotide degradation as a function of the emission of fluorescence.
Enediyne antibiotics calicheamicin and esperamicin at varying concentrations (0.31, 0.78, 1.6, 3.2, 15.9, and 31.7 nM) were incubated in 40 mM Tris-HCl (pH 7.5) with 3.2 nM of the calicheamicin-specific labeled molecular break light oligonucleotide (A). DNA cleavage was initiated with the addition of 1 μL 100 mM dithiothreitol (“DTT”) to produce a final concentration of 50 μM DTT, and the reaction was monitored over 10 minutes via spectrofluorometry.
Pseudo-first order kinetic parameters were utilized to determine the initial velocities at each given enediyne concentration. Specifically, graphical representation of the data was based upon equation 2 where [A]t is the concentration of cleaved oligonucleotide at a given time (t) and [A]0 is the initial concentration of oligonucleotide in the assay. Least squares analysis gave the slope (k), or rate, which was converted to V by the relationship in equation 3. The maximum velocity achieved (Vmax) was then selected from the range of concentrations examined.
ln[A]t=−kt+ln[A]0 [Equation 2]
Bleomycin, an Fe^+2-dependent nucleic acid cleavage agent, is a natural metabolite from Streptomyces verticillus. Blenoxane (a mixture containing approximately 70% bleomycin A2 and 30% bleomycin B2) was dissolved in water & optically standardized (ε291=1.7×10^4M^−1 cm^−1). Bleomycin mediated cleavage was adapted from procedures outlined by Giloni et al. J. Biol. Chem. 256: 8608-8615 (1981). Several different concentrations of bleomycin (200 nM, 100 nM, 50 nM, 25 nM, 12.5 nM, 5 nM, and 2.5 nM) were incubated in 50 mM sodium phosphate, 2.5 mM ascorbate, at pH 7.5 and 37° C. with 3.2 nM of the molecular break light A.
The reaction was initiated by the addition of 65 mM Fe(II) and monitored over 5 minutes. This protocol was repeated with the addition of 5 mM sodium ascorbate to the above conditions. Pseudo-first order kinetic parameters were utilized to determine the initial velocities at each given bleomycin concentration as previously described.
In a first assay, 3.2 nM break light A was incubated in 40 mM Tris HCl and 2.5 mM ascorbate at 37° C. and pH 7.5. Cleavage was initiated by addition of MPE/Fe(II) in a 1.2:1 molar ratio to various concentrations. Final Fe(II) concentrations were 8 μM, 4 μM, 2 μM, 1 μM, 500 nM, 250 nM, and 125 nM.
In a second assay, 32 nM molecular break light A was incubated in 40 mM Tris and 2.5 mM sodium ascorbate at pH 7.5 and 37° C. Cleavage was initiated by addition of MPE/Fe(II) in a 1.2:1 molar ratio to various concentrations. Final Fe(II) concentrations were 50 nM, 125 nM, 250 nM, 500 nM, 1 μM, and 2 μM.
In a third assay, 32 nM break light A (calicheamicin-specific molecular break light oligonucleotide) was incubated in 40 mM Tris and 2.5 mM sodium ascorbate at pH 7.5 and 37° C.

For data set [2], the system named is dual fluorophoric-labeled dsDNA. Particulars: 0.8 nM dual fluorophoric-labeled dsDNA, FCS spectrometer; cited from earlier work.
The subject of data set [3] is oligonucleotide substrate. Conditions: previously reported values for BamHI; cited from earlier work.
Data set [4] concerns break light A. Put plainly: BamHI / DNaseI digestion of break light A (proof of principle). Type of data set: biochemical. Conditions: 3.2 nM break light A, 37° C.; 100 U BamHI or 10 U DNaseI. Here is the method:
(§1) The cleavage of molecular break light probes A and B by BamHI was investigated. In a first assay, break light A and break light B were each incubated with 100 U BamHI. As a control, break light B was also incubated without enzyme. The incubations occurred at 37° C. in a solution containing 10 mM TrisHCl, 50 mM NaCl, 10 mM MgCl2, and 1 mM DTT at pH 7.9.
(§2) In a second assay, break light A and break light B were each incubated with 10 U DnaseI. As a control, break light A was also incubated without enzyme. The incubations occurred at 37° C. in a solution containing 40 mM Tris HCl, 10 mM MgSO4, and 1 mM CaCl2 at pH 8.0.

The subject of a further data set is break light B. The experiment in a line: BamHI / DNaseI digestion of break light B (proof of principle). It counts as biochemical. The procedure:
as §1, §2

The subject of another data set is molecular break light B. Put plainly: BamHI steady state kinetics and sensitivity limits with break light B. Type of data set: biochemical. Here is the method: Samples were analyzed with a FluoroMax-2 spectrofluorometer equipped with DataMax for Windows (Instruments S. A., Inc.; Edison, N.J.) and the temperature controlled (30° C., unless otherwise noted) by a Haake Circulator DC10. All samples were filtered prior to analysis and analyzed via a timebase scan (λex=485 nm, λEm=517 nm) in a Suprasil quartz cuvette (10 mm path) fitted with a magnetic stirring bar in a total volume of 2 mL. Reactions were equilibrated to the incubation temperature before initiation of DNA cleavage as was evident by a steady background emission over 10 min. Total cleavage of the labeled oligonucleotide, confirmed by polyacrylamide gel electrophoresis (PAGE), was defined as the maximum fluorescence emission possible under saturated cleaving conditions. Emission units were converted to the amount of labeled oligonucleotide used within a procedure, thereby equating labeled oligonucleotide degradation as a function of the emission of fluorescence.
Determination of BamHI (10 units/μL) specific cleavage was performed in 6 mM TrisHCl, 100 mM NaCl, 6 mM MgCl2, and 1 mM DTT, at 37° C. and pH 7.5 with 3.2 nM of molecular break light B (FIG. 2B) and varying amounts of BamHI-specific oligonucleotide lacking the fluorophore and quenching moieties. Total substrate concentrations (including break light) were as follows: 389 nM, 196 nM, 81 nM, 42 nM, 11 nM, 7.5 nM, and 3.4 nM.
The reaction was initiated with 10 U BamHI enzyme and monitored via spectrofluorometry over a time course of fifteen minutes. The initial rate of DNA cleavage was determined from data within the first 100 seconds of initiation which was then adjusted according to equation 1. These adjusted values were utilized for the reciprocal plot from which the Michaelis-Menten kinetic parameters were determined.
Vact=Vobs([Sact]/[S*]) [Equation 1]
The steady-state kinetic parameters for a commercially available BamHI were determined. The dependence of BamHI hydrolysis on substrate concentration was investigated using mixtures of a fixed amount of molecular break light B and varying amounts of an analogous non-labeled oligonucleotide (lacking both FAM and DABCYL) over a wide substrate concentration range. The apparent competitive inhibition observed due to phenomenon of “carrier dilution” was corrected to give the appropriate kinetic parameters. See, e.g., Roy, et al. (1994).
The observed velocity (Vapp) is related to the actual velocity (Vact) by equation [I] where [Sact] and [S*] are the total substrate concentration and B concentration, respectively. The reciprocal plot after correction for this “carrier dilution” phenomenon is illustrated in FIG. 4b.
A recent fluorescence correlation spectroscopy (FCS) assay for the restriction endonuclease EcoRI using 0.8 nM of dual fluorophoric-labeled dsDNA and a highly specialized FCS spectrometer, reported a detection limit of 1.6 pM EcoRI. Kettling, U., et al. (1998). Under the conditions containing even slightly less oligonucleotide (0.68 nM molecular break light), cleavage was easily detectable to 3.7 pM BamHI. […] This assay was performed undert the same conditions as the other assays in this Example.

[5] abbreviates: [DNA]total = 3.2 nM, MPE as common agent.

Like-named read-outs stand apart in the source and are kept apart here. Marks after values point to notes of the source that are not given here.

As to `O=C([O-])CN(CCN(CC(=O)[O-])CC(=O)[O-])CC(=O)[O-].[Fe+2].[H+].[H+]` [EDTA, Fe^+2-EDTA], in the data set on break light A [1], the “agent concentration at maximum turnover” value is about 1.3 µM and the “effect of ascorbate on DNA-cleavage” value is “critical for efficient DNA-cleavage”. In the data set with break light A [1] ([DNA]total = 32 nM), the “Comparison to EDTA (fold enhancement over EDTA turnover)” value is 1.0 fold, the “Turnover (Vmax/[Agent])” value worked out at 1.5e-06 s⁻¹ and the maximum rate (Vmax) is recorded as 0.002 ± 0.001^e nM sec^−1.

As to EcoRI: restriction endonuclease, the detection limit in data set [2] was 1.6 pM.

Regarding bleomycin, in the data set on break light A [1] (3.2 nM break light A, conditions described), the “detection of agent by the assay (sensitivity range)” value is “nM range”. In addition, in the data set on break light A [1] ([DNA]total = 3.2 nM), the “Turnover (Vmax/[Agent])” value is 0.001 s⁻¹ and the Vmax is 0.009 ± 0.001^d nM sec^−1. Also, the “Comparison to EDTA (fold enhancement over EDTA turnover)” value in the data set on break light A [1] (setting [5]) is on record as 6.8 × 10^4 fold. Moreover, in the data set on break light A [1], the “agent concentration at maximum turnover (Vapp/[cleavage agent])” value is 2.5 nM and the “effect of ascorbate on DNA-cleavage” value is reported as “did not affect”. For the same molecule, the “additional increase of cleavage efficiency over MPE” value in the data set with break light A [1] (from Table 1) worked out at 10 fold.

Take esperamicin A1: in the data set on break light A [1] (3.2 nM break light A, excess DTT), the “maximum fluorescence upon cleavage, compared with DNaseI” value was “identical to that observed with DNaseI”. Moreover, in the data set with break light A [1] ([DNA]total = 3.2 nM), the “Turnover (Vmax/[Agent])” value was 0.009 s⁻¹ and the maximal velocity (Vmax) was 0.007 ± 0.001^d nM sec^−1. For the same molecule, the “Comparison to EDTA (fold enhancement over EDTA turnover)” value with break light A [1] (setting [5]) is 6.1 × 10^5 fold. For the same molecule, the “enhancement of cleavage efficiency over bleomycin” value in the data set on break light A [1] (from Table 1) is recorded as about 10 fold.

In the case of “methidiumpropyl-Fe^+2-EDTA [Methidiumpropyl-EDTA]”, in the data set on break light A [1], the “agent concentration at maximum turnover” value was about 0.05 µM, the “agent concentration at maximum turnover (Vapp/[cleavage agent])” value is listed as 125 nM and the “effect of ascorbate on DNA-cleavage” value is reported as “critical for efficient DNA-cleavage”. Moreover, in the data set with break light A [1] ([DNA]total = 3.2 nM), the “Turnover (Vmax/[Agent])” value worked out at 2.4e-05 s⁻¹ and the Vmax is 0.003 ± 0.001^d nM sec^−1. The “Comparison to EDTA (fold enhancement over EDTA turnover)” value with break light A [1] (setting [5]) was 1.6 × 10^3 fold. In addition, in the data set on break light A [1] ([DNA]total = 32 nM), the “Comparison to EDTA (fold enhancement over EDTA turnover)” value was 1.6 × 10^3 fold, the “Turnover (Vmax/[Agent])” value was 0.002 s⁻¹ and the Vmax is on record as 0.118 ± 0.004^e nM sec^−1. Further, the “enhancement of cleavage efficiency in comparison to Fe^+2-EDTA” value with break light A [1] (from Table 1) is ~10^3 fold.

B1: BamHI: restriction endonuclease, commercially available (protein, UniProt P23940 1-213, looked up)
Type II restriction enzyme …: MEVEKEFITDEAKELLSKDKLIQQAYNEVKTSICSPIWPATSKTFTINNTEKNCNGVVPIKELCYTLLEDTYNWYREKPLDILKLEKKKGGPIDVYKEFIENSELKRVGMEFETGNISSAHRSMNKLLLGLKHGEIDLAIILMPIKQLAYYLTDRVTNFEELEPYFELTEGQPFIFIGFNAEAYNSNVPLIPKGSDGMSKRSIKKWKDKVENK
B1: the Michaelis constant (Km) in data set [3] was 0.4 nM; in the data set on molecular break light B (10 U BamHI, break light B plus non-labeled oligonucleotide, 37° C., pH 7.5) it was 8.9 ± 0.5 nM. The “V max, previously reported” value in data set [3] was 0.009 nM/s. The “change in fluorescence intensity over time” value in the data set on break light A [4] is listed as “no change”; with break light B (3.2 nM break light B, 37° C., 100 U BamHI or 10 U DNaseI) it was “increase of fluorescence”. The “fluorescence maximum intensity upon complete cleavage, relative to DNaseI” value in the data set with break light B (same concentration of molecular break light) is 75%. In addition, the detection limit in the data set with molecular break light B and with molecular break light B (molecular break light concentration 34 nM) was 0.12 pM in each case. Further, the “detection limit (cleavage easily detectable to)” value in the data set with molecular break light B (0.68 nM molecular break light) is 3.7 pM. In the data set with molecular break light B (10 U BamHI, 3.2 nM break light B plus non-labeled oligonucleotide, 37° C., pH 7.5), the Vmax came out at 0.024 ± 0.001 nM/s. Moreover, the “Comparison to EDTA (fold enhancement over EDTA turnover)” value with molecular break light B (BamHI, break light B) was 4.8 × 10^5 fold. Besides, the “Turnover (Vmax/[Agent]; also known as kcat)” value in the data set with molecular break light B (BamHI, break light B) was 0.007^c sec^−1.

Values taken from patent US20020187484A1, “Molecular break lights probes for detecting nucleotide cleavage” (priority 2000, published 2002).
